These are literature values, as cited in patent US12023334B2, “Composition including rilpivirine and method for treating tumors or cancer” (APTORUM THERAPEUTICS LIMITED, priority 2019, dated 2024).

One series concerns U87 glioblastoma cells. The settings on record: Journal of Cancer 9(1):117-128, 2018; cited from earlier work.
The next series concerns A-375 melanoma. The settings on record: animal experiments (Oncogene 24:3923-3931, 2005); cited from earlier work.
Series [1] has as its system PC3 prostate cancer cell lines. The settings on record: animal experiments (Oncogene 24:3923-3931, 2005); cited from earlier work.
For the next series, the system named is pancreatic cancer cells. The note with it: in vitro (PloS ONE 10(6):e0130277, 2015); cited from earlier work.

With `Cc1cc(C)c(Nc2ccnc(Nc3ccc(C#N)cc3)n2)c(C)c1` [Dapivirine], in the series on U87 glioblastoma cells, the “tumor growth of U87 glioblastoma cells” value is recorded as “inhibit tumor growth”.

As for `O=C1Nc2ccc(Cl)cc2[C@@](C#CC2CC2)(C(F)(F)F)O1` [efavirenz], in the series on A-375 melanoma, the “tumorigenic growth of A-375 melanoma” value is recorded as “antagonize tumorigenic growth”. Besides, the “tumorigenic growth of PC3 prostate cancer cell lines” value in series [1] was “antagonize tumorigenic growth”. Also, the “toxic potential against pancreatic cancer cells” value in the series on pancreatic cancer cells is on record as “high toxic potential”.

In the case of `Cc1ccnc2c1NC(=O)c1cccnc1N2C1CC1` [nevirapine], the “tumorigenic growth of A-375 melanoma” value in the series on A-375 melanoma is “antagonize tumorigenic growth”. The “tumorigenic growth of PC3 prostate cancer cell lines” value in series [1] is listed as “antagonize tumorigenic growth”.
